# Where two headings read alike, the source gives them in different places.
# Legend:
# [1] = test system: Streptococcus pyogenes C203; test: ED50 in mice with experimental infections (Table IV); type: in vivo; conditions: Streptococcus pyogenes, doses given 1 and 4 hours postinfection
# How it was run: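 Read-out is ED50, the mg/kg dose protecting half of infected mice; values refer to each of two doses, given 1 and 4 hours after infection.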
# [2] = test system: Staphylococcus aureus X400; test: MIC, standard agar-dilution assay (Table II); type: cell-based; design: unit not given here; conditions: Staphylococcus aureus X400, methicillin-resistant strain
# Description: (§1) The MIC's in Table II were determined by standard agar-dilution assays. The MIC's in Table III were obtained using a conventional broth-dilution microtiter test.
# [3] = test system: Staphylococcus aureus V41; test: MIC, standard agar-dilution assay (Table II); type: cell-based; design: unit not given here; conditions: Staphylococcus aureus V41, penicillin-resistant strain
# Description: as §1
# [4] = test system: Haemophilus influenzae R252; test: MIC, standard agar-dilution assay (Table II); type: cell-based; design: unit not given here; conditions: Haemophilus influenzae R252, ampicillin-resistant strain
# Description: as §1
# [5] = test system: Staphylococcus aureus S13E; test: MIC, standard agar-dilution assay (Table II); type: cell-based; design: unit not given here
# Description: as §1
# [6] = test system: Staphylococcus epidermidis EPI1; test: MIC, standard agar-dilution assay (Table II); type: cell-based; design: unit not given here
# Description: as §1
# [7] = test system: Streptococcus pneumoniae Park I; test: MIC, standard agar-dilution assay (Table II); type: cell-based; design: unit not given here
# Description: as §1
# [8] = test system: Haemophilus influenzae Holt; test: MIC, standard agar-dilution assay (Table II); type: cell-based; design: unit not given here; conditions: ampicillin-sensitive strain
# Description: as §1
# [9] = test system: Streptococcus Group D X66; test: MIC, standard agar-dilution assay (Table II); type: cell-based; design: unit not given here
# Description: as §1
# [10] = test system: Staphylococcus aureus X1.1; test: MIC, standard agar-dilution assay (Table II); type: cell-based; design: unit not given here
# Description: as §1
# [11] = test system: Staphylococcus epidermidis EPI2; test: MIC, standard agar-dilution assay (Table II); type: cell-based; design: unit not given here
# Description: as §1
# [12] = test system: Streptococcus Group D 9960; test: MIC, standard agar-dilution assay (Table II); type: cell-based; design: unit not given here
# Description: as §1
# [13] = test system: Streptococcus pyogenes C203; test: MIC, standard agar-dilution assay (Table II); type: cell-based; design: unit not given here
# Description: as §1
# [14] = test system: Mycoplasma hyorhinis; test: MIC, broth-dilution microtiter test (Table III); type: cell-based; design: unit not given here
# Description: as §1
# [15] = test system: Streptococcus sp. 80; test: MIC, broth-dilution microtiter test (Table III); type: cell-based; design: unit not given here
# Description: as §1
# [16] = test system: Pasteurella multocida 68C; test: MIC, broth-dilution microtiter test (Table III); type: cell-based; design: unit not given here
# Description: as §1
# [17] = test system: Pasteurella haemolytica 41D; test: MIC, broth-dilution microtiter test (Table III); type: cell-based; design: unit not given here
# Description: as §1
# [18] = test system: Mycoplasma synoviae; test: MIC, broth-dilution microtiter test (Table III); type: cell-based; design: unit not given here
# Description: as §1
# [19] = test system: Pasteurella multocida 40G; test: MIC, broth-dilution microtiter test (Table III); type: cell-based; design: unit not given here
# Description: as §1
# [20] = test system: Pasteurella haemolytica 23C; test: MIC, broth-dilution microtiter test (Table III); type: cell-based; design: unit not given here
# Description: as §1
# [21] = test system: Mycoplasma gallisepticum; test: MIC, broth-dilution microtiter test (Table III); type: cell-based; design: unit not given here
# Description: as §1
# [22] = test system: Staphylococcus aureus; test: MIC, broth-dilution microtiter test (Table III); type: cell-based; design: unit not given here
# Description: as §1
# [23] = test system: Pasteurella multocida 22A; test: MIC, broth-dilution microtiter test (Table III); type: cell-based; design: unit not given here
# Description: as §1
# [24] = test system: Pasteurella multocida 60A; test: MIC, broth-dilution microtiter test (Table III); type: cell-based; design: unit not given here; conditions: avian isolate
# Description: as §1
# [25] = test system: Pasteurella haemolytica 22C; test: MIC, broth-dilution microtiter test (Table III); type: cell-based; design: unit not given here
# Description: as §1
# [26] = test system: Pasteurella multocida 17E; test: MIC, broth-dilution microtiter test (Table III); type: cell-based; design: unit not given here; conditions: bovine isolate
# Description: as §1
# [27] = test system: Pasteurella multocida; test: Treatment of Pasteurella infections in chicks (Table V); type: in vivo, one-day-old chicks; conditions: Pasteurella multocida, sc, 4 h; 30 mg/kg by subcutaneous injection one and four hours post challenge; read-out: Deaths in Treated Chicks/Number Treated (converted)
# How it was run: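 Dosing was 30 mg/kg by subcutaneous injection, one and four hours after challenge. Day-old chicks received 0.1 ml of a 10^-3 dilution of a 20-hour tryptose broth culture of avian P. multocida subcutaneously. Nonmedicated infected chicks served as controls, ten per group.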
# [28] = C203, oral, read-out: ED50, Oral
# [29] = C203, sc, subcutaneous, read-out: ED50, Subcutaneous
SMILES,"ED50 [1, 28] [mg/kg]","ED50 [1, 29] [mg/kg]",minimal inhibitory concentration (MIC) [2],minimal inhibitory concentration (MIC) [3],minimal inhibitory concentration (MIC) [4],minimal inhibitory concentration (MIC) [5],minimal inhibitory concentration (MIC) [6],minimal inhibitory concentration (MIC) [7],minimal inhibitory concentration (MIC) [8],minimal inhibitory concentration (MIC) [9],minimal inhibitory concentration (MIC) [10],minimal inhibitory concentration (MIC) [11],minimal inhibitory concentration (MIC) [12],minimal inhibitory concentration (MIC) [13],minimal inhibitory concentration (MIC) [14],minimal inhibitory concentration (MIC) [15],minimal inhibitory concentration (MIC) [16],minimal inhibitory concentration (MIC) [17],minimal inhibitory concentration (MIC) [18],minimal inhibitory concentration (MIC) [19],other results
"CCC1OC(=O)CC(O)C(C)C(OC2OC(C)C(OC(C)=O)C(N(C)C)C2OC(C)=O)C(CC=O)CC(C)C(=O)C=CC(C)=CC1COC(C)=O (stereo not drawn) [Compound 7, 2',4',23-Tri-O-acetyl-OMT]",100,> 15,1,1,8,1,0.5,0.125,2,1,0.5,0.5,1,0.5,3.12,0.195,1.56,6.25,0.39,1.56,minimal inhibitory concentration (MIC) [20]: 6.25; minimal inhibitory concentration (MIC) [21]: 0.39; minimal inhibitory concentration (MIC) [22]: 0.78; minimal inhibitory concentration (MIC) [23]: 3.12; minimal inhibitory concentration (MIC) [24]: 3.12; minimal inhibitory concentration (MIC) [25]: 6.25; minimal inhibitory concentration (MIC) [26]: 3.12; mortality at 30 mg/kg [27]: 50%
"CCC1OC(=O)CC(O)C(C)C(OC2OC(C)C(OC(C)=O)C(N(C)C)C2OC(C)=O)C(CC=O)CC(C)C(=O)C=CC(C)=CC1CO (stereo not drawn) [Compound 3, 2',4'-Di-O-acetyl-OMT]",139,> 15,4,4,4,2,1,0.25,2,2,2,1,2,0.5,3.12,< 0.78,1.56,6.25,0.195,6.25,minimal inhibitory concentration (MIC) [20]: 6.25; minimal inhibitory concentration (MIC) [21]: 0.78; minimal inhibitory concentration (MIC) [22]: 1.56; minimal inhibitory concentration (MIC) [23]: 3.12; minimal inhibitory concentration (MIC) [24]: 3.12; minimal inhibitory concentration (MIC) [25]: 12.5; minimal inhibitory concentration (MIC) [26]: 3.12; mortality at 30 mg/kg [27]: 0%
CCC1OC(=O)CC(O)C(C)C(OC2OC(C)C(O)C(N(C)C)C2O)C(CC=O)CC(C)C(=O)C=CC(C)=CC1COC(=O)OC (stereo not drawn) [Compound 74],> 100,3,0.5,0.25,2,0.25,0.25,0.03,1,0.5,0.25,0.25,0.25,0.25,0.78,0.39,12.5,1.56,0.195,12.5,minimal inhibitory concentration (MIC) [20]: 3.12; minimal inhibitory concentration (MIC) [21]: < 0.048; minimal inhibitory concentration (MIC) [22]: 1.56; minimal inhibitory concentration (MIC) [23]: 25; minimal inhibitory concentration (MIC) [24]: 1.56; minimal inhibitory concentration (MIC) [25]: 6.25; minimal inhibitory concentration (MIC) [26]: 1.56; mortality at 30 mg/kg [27]: 0%
CCC1OC(=O)CC(O)C(C)C(OC2OC(C)C(O)C(N(C)C)C2OC(C)=O)C(CC=O)CC(C)C(=O)C=CC(C)=CC1COC(C)=O (stereo not drawn) [Compound 9],137,6.4,0.5,0.5,4,0.25,0.25,0.125,1,0.5,0.45,0.25,0.5,0.25,1.56,0.195,3.12,3.12,0.097,1.56,minimal inhibitory concentration (MIC) [20]: 3.12; minimal inhibitory concentration (MIC) [21]: < 0.78; minimal inhibitory concentration (MIC) [22]: 0.78; minimal inhibitory concentration (MIC) [23]: 6.25; minimal inhibitory concentration (MIC) [24]: 1.56; minimal inhibitory concentration (MIC) [25]: 3.12; minimal inhibitory concentration (MIC) [26]: 1.56; mortality at 30 mg/kg [27]: 0%
CCC1OC(=O)CC(O)C(C)C(OC2OC(C)C(O)C(N(C)C)C2OC(C)=O)C(CC=O)CC(C)C(=O)C=CC(C)=CC1COC(=O)C=Cc1ccccc1 (stereo not drawn) [Compound 33],146,9.7,0.5,0.5,4,0.5,0.5,0.125,4,1,0.5,0.5,1,0.25,0.78,0.39,3.12,12.5,0.39,3.12,minimal inhibitory concentration (MIC) [20]: 12.5; minimal inhibitory concentration (MIC) [21]: 0.05; minimal inhibitory concentration (MIC) [22]: 0.39; minimal inhibitory concentration (MIC) [23]: 3.12; minimal inhibitory concentration (MIC) [24]: 3.12; minimal inhibitory concentration (MIC) [25]: 12.5; minimal inhibitory concentration (MIC) [26]: 3.12; mortality at 30 mg/kg [27]: 80%
CCC1OC(=O)CC(O)C(C)C(OC2OC(C)C(O)C(N(C)C)C2O)C(CC=O)CC(C)C(=O)C=CC(C)=CC1COS(=O)(=O)c1ccc(C)cc1 (stereo not drawn) [Compound 46],146,15,0.25,0.25,1,0.25,0.25,0.03,1,0.25,0.25,0.25,0.25,0.125,0.78,0.097,3.12,3.12,0.097,6.25,minimal inhibitory concentration (MIC) [20]: 3.12; minimal inhibitory concentration (MIC) [21]: 0.05; minimal inhibitory concentration (MIC) [22]: 0.195; minimal inhibitory concentration (MIC) [23]: 6.25; minimal inhibitory concentration (MIC) [24]: 1.56; minimal inhibitory concentration (MIC) [25]: 3.12; minimal inhibitory concentration (MIC) [26]: 3.12; mortality at 30 mg/kg [27]: 80%
